# Data taken from a melting point compilation (Tetko et al.; mined from patent text by program, amines drawn as free bases though some values may be those of a salt).
row,SMILES,melting point
1,CCCn1nc(C(=O)c2cccc(O)c2)c2cccc(C(F)(F)F)c21,118 °C
2,O=C(Nc1ccc(-n2nc(C(F)(F)F)cc2OC(F)F)cc1)c1ccccc1Cl,122 to 123 °C
3,C#CCOc1ccc2ccc(NC(=O)c3ccc(OC)cc3)nc2n1,140 °C
4,CCOP(=O)(OCC)C1(P(=O)(OCC)OCC)CC(C(=O)CC)=NN1,96 to 98 °C
5,Cc1cc2c(cc1S(=O)(=O)c1cc(Cl)ccc1Cl)OC(C(=O)O)O2 (configuration not stated),155 to 157 °C
6,CCCc1nn(-c2ccc(C(F)(F)F)cn2)cc1CCCOc1cc(CCC(=O)O)n(C)n1,80 to 81 °C
7,COc1cccc(Oc2c(Cl)ncnc2NS(=O)(=O)c2ccc(C(C)(C)C)cc2)c1,109 to 110 °C
8,CCOc1cc(-c2nc(-c3cnc(N)c(C)c3)no2)ccc1-c1ccccc1C(F)(F)F,163 to 165 °C
9,Cc1cc(Nc2c(C#N)cnc3cc(-c4csc(CN5CCOCC5)c4)ccc23)ccc1OCc1ccccn1,217 to 219 °C
10,O=C(Nc1ccc(-n2nc(C(F)(F)F)cc2C(F)(F)F)cc1)c1ccc(CO)cc1,213 to 214 °C
11,CC(C)c1ccc(C=CC(=O)c2ccc(O)c(CC(=O)O)c2)cc1,228 °C
12,COC(=O)Cc1ccc(OCCNC(=O)C2Cc3ccccc3N2S(=O)(=O)c2ccc(-c3cccc(C(F)(F)F)c3)cc2)cc1C (configuration not stated),53 to 57 °C
13,CCOC(=O)NN=Cc1nc(C)[nH]c1C,208 to 210 °C
14,CCCCOC(=O)c1ccc(NC(=NC(=O)OCC)SC)cc1,67 to 68 °C
15,Cn1c(=O)c2c(ncn2CCCC#N)n(C)c1=O,146 to 150 °C
16,O=C(O)c1cc(F)c(O)nc1Nc1ccc(F)cc1F,213 to 216 °C
17,O=C(O)C1CCc2c(c3ccccc3n2C(=O)c2cccc(Br)c2)C1 (configuration not stated),185 to 186 °C
18,CN(C)c1cccc(CN2CC=C(c3c[nH]c4ccc(Cl)cc34)CC2)c1,193 to 195 °C
19,CN(C)C=Nc1ccncc1O,121 to 123 °C
20,CCc1ccc(-n2c(-c3cccnc3)nc(SC)c(C#N)c2=O)cc1,207 to 209 °C
21,CC(C)CCNC(Nc1cc(C(F)(F)F)cc(C(F)(F)F)c1)=C(C#N)C#N,158 to 159 °C
22,CCCCc1nc2ccccc2n1Cc1ccc(-c2ccccc2C=O)cc1,117 to 118 °C
23,CC(C)(CNc1nc(Cl)ncc1Cl)NS(C)(=O)=O,143 to 145 °C
24,OC1CCc2cc3c(cc21)OCO3 (configuration not stated),92 to 94 °C

row,SMILES,melting point
1,CCOCCOc1nc2c(c3ccccc13)c1cc(Cl)ccc1n2C,93.5 to 95.5 °C
2,CCCCCCCCCCCCCCCCCCOc1ccc(C(=O)C(Sc2nnnn2-c2ccccc2)c2ccc([N+](=O)[O-])cc2)cc1 (configuration not stated),82 to 95 °C
3,CCn1c(=O)oc2cc([N+](=O)[O-])ccc21,133 to 135 °C
4,CCN1CC2OC(C3OCCO3)(C1)c1ccccc12 (configuration not stated),107 to 108 °C
5,COC1(c2csc(Sc3ccc(/C(C)=N/O)cc3)n2)CCOCC1,146 °C
6,O=C1NC(=O)C(c2ccc(N3C(=O)c4ccccc4C3=O)cc2)S1 (configuration not stated),243 to 245 °C
7,Nc1cccc(C(=O)Nn2cnnn2)c1,281 °C
8,CCOC(=O)c1nc(-c2ccc(OC)cc2)ns1,61 to 63 °C
9,Clc1ccccc1Oc1cnccc1N1CCNCC1,99 to 101 °C
10,CCCc1nc2c(N)nc3cc(OCc4ccc(C)cc4)ccc3c2n1CC(C)C,205 to 207 °C
11,CCNC(=O)NC[C@H](O)c1cccc(O)c1,102 to 105 °C
12,CCn1ncc2c(ON=C(C)C)c(C(=O)c3ccccc3)cnc21,115 to 116 °C
13,COC(=O)c1nc(-c2ccc(Cl)c(OC)c2F)nc(O)c1Cl,215 to 217 °C
14,O=C1C[C@@H]2O[C@@H](CSc3ccccc3)CN12 (racemic),35.5 to 37 °C
15,CNC(=O)c1cn2c(C)c(C)nc2c(O)c1CC[C@@H](O)c1ccccc1,250 to 252 °C
16,COc1ccc2c(c1)CC[C@@H](O)[C@@H]2n1nc(-c2c(-c3ccccc3)nn3ccccc23)ccc1=O (relative stereo),146 to 150 °C
17,CC(C)C(=O)Nc1ccc(Br)c(C(F)(F)F)c1,126 to 128 °C
18,O=C(O)c1nc2n(n1)-c1cccnc1N(c1ccccc1Cl)C2,155 to 163 °C
19,CCCc1cc(-c2csc(-c3ccc(OCC)c(OCC)c3)n2)cc(C(=O)O)c1O,179 to 180 °C
20,Cc1cccn2ccnc12,150 to 152 °C
21,Cc1cccc(Cl)c1N1CCCN(C)C1=S,164 to 165 °C
22,CNc1ncnc2c1nnn2Cc1ccccc1F,180 to 182 °C
23,"CCOC(=O)c1ccc(-c2ccc(C(C)O)cc2)cc1 (single isomer, unassigned; (+))",74.6 °C
24,O=C(NCc1ccccc1)Nc1cc(N2CC(c3ccccc3)CC2=O)ccn1 (configuration not stated),165 to 166 °C

row,SMILES,melting point
1,CC(C)(C)OC(=O)[C@@H]1C[C@H](C(=O)OC(C)(C)C)N1,47 to 48.5 °C
2,O=C1NC(=O)C(Cc2c[nH]c3ccc(Cl)cc23)N1 (configuration not stated),226 to 228 °C
3,O=C(O)c1ccnc2[nH]ccc12,> 300 °C
4,CNC(=O)NC(Cc1c[nH]c2ccccc12)C(=O)NCc1cc(C(F)(F)F)cc(C(F)(F)F)c1 (configuration not stated),213 to 215 °C
5,c1ccc(CCN2CCC(c3n[nH]c4c3CCc3ccccc3-4)CC2)cc1,151 to 152 °C
6,N#Cc1ccc(NC(=O)c2cccc(OCc3ccc(Cl)cn3)c2)cc1,168 to 169 °C
7,CN(CCO[N+](=O)[O-])C(=O)COC(=O)c1cc(S(N)(=O)=O)c(Cl)cc1NCc1ccco1,70 to 72 °C
8,O=C(NCc1ccccc1)c1cc2c(=O)n(Cc3ccccc3)c(=O)[nH]c2s1,> 255 °C
9,COCOc1ccccc1OCBr,40 to 42 °C
10,CC1(C)C=Cc2cc(C(=O)NCCN3C(=O)c4ccccc4C3=O)ccc2O1,183 to 185 °C
11,CC(=O)Nc1cc(Cl)c(C)cc1Br,154 to 155 °C
12,CCOC(=O)c1c(CCl)nc2sc(C)c(C)c2c1-c1ccc(Cl)cc1,132 to 144 °C
13,OC(CNCC1CCCO1)c1ccccc1 (configuration not stated),70 to 72 °C
14,CCCCc1nc(Cl)c(Cc2nnn[nH]2)n1Cc1ccc(C(=O)c2ccccc2C(=O)O)cc1,228 to 230 °C
15,N#Cc1ccc(-c2ccc(OCc3ccc4ccccc4n3)cc2)c(-c2ccncc2)c1,190 to 193 °C
16,COC(=O)c1cscc1S(=O)(=O)Cl,71 °C
17,Cn1cncc1C(O)(c1ccc(C=O)cc1)c1ccc2c(c1)c(-c1cccc(Cl)c1)cc(=O)n2C (configuration not stated),208 °C
18,Ic1ccc(OC23CC4CC(CC(C4)C2)C3)cc1,115 to 118 °C
19,CCCNC(=O)C1(C/C=C\CSc2nc3ccc(OCC)cc3s2)c2ccccc2-c2ccccc21,135 to 137 °C
20,CC(C)(CC(=O)c1ccc(Cl)c(Cl)c1)C(=O)O,137 to 138 °C
21,"CN1C(=O)CCC2(C)c3ccc(NC(=O)c4ccccc4)cc3CCC12 (single isomer, unassigned; (+))",220 to 222 °C
22,CCCCOC(=O)c1cc(Cl)ccc1N,37 to 39 °C
23,CC(C)CN1C(=O)CC[C@H]1COC(c1ccccc1)(c1ccccc1)c1ccccc1,91 to 93 °C
24,CC1(C)Oc2ccc(CN)cc2[C@@H](N2CCCC2=O)[C@@H]1O (relative stereo),191 to 193 °C
